Test results published in patent publication US8785416B2, “Sulphated disaccharides for the treatment of neurodegenerative and/or neurovascular diseases” (Bioiberica, S.A., priority 2009, dated 2014).

Assays:
rat hippocampal slices = test: Oxygen and glucose deprivation (15 minutes OGD, 2 hours reoxygenation) in hippocampal slices, MTT cell viability; format: cell-based
Procedure: Male Spague Dawley strain rats (250-325 g) were used. After anaesthesia by means of an intraperitoneal injection of 60 mg/Kg sodium pentobarbital (Euta-Lender®), they were decapitated with a guillotine and the brain was extracted after a craniotomy. The brain was immediately submersed in a dissection solution, a cold (4° C.) modified Krebs-Henseleit solution at pH 7.4, the composition of which is: 120 mM NaCl, 2 mM KCl, 0.5 mM CaCl2, 26 mM NaHCO3, 10 mM MgSO4, 1.18 mM KH2PO4, 11 mM glucose and 200 mM sucrose, bubbled with 95% O2-5% CO2. The hippocampi were isolated, embedded in 2% low melting point agarose (Sigma-Aldrich), and cut into 350 μm transverse slices in a vibratome (Leica VT1000S).
After the cutting in the vibratome, the slices were transferred to a vial with sucrose-free dissection Krebs solution, bubbled with 95% O2-5% CO2 for 60 minutes (equilibrium period).
After the equilibrating period, the medium was removed and an oxygenated solution (normal Krebs solution (120 mM NaCl, 2 mM KCl, 2 mM CaCl2, 26 mM NaHCO3, 1.19 mM MgSO4, 1.18 mM KH2PO4 and 11 mM glucose), bubbled with 5% CO2 and 95% O2 for 30 minutes (preincubation period), was introduced. The baseline slices were maintained in this oxygenated solution throughout the entire experiment. To induce OGD, the oxygenated solution was replaced with another one which lacked glucose and was bubbled with a mixture of gases of 5% CO2 and 95% N2 (anoxic solution). The slices were in a bath at 37° C. After inducing OGD, the anoxic medium was replaced with another one which contained the oxygenated solution (reoxygenation period).
To evaluate the effect of the compounds, they were incubated for the 30 minutes of the preincubation and throughout the OGD and during the reoxygenation. Two OGD-reoxygenation protocols were used: (i) 1 hour of OGD and 2 hours of reoxygenation and (ii) 15 minutes of OGD followed by 2 hours of reoxygenation.
When the OGD-reoxygenation protocol (ii): 15 minutes of OGD followed by 2 hours of reoxygenation was used, the slices were incubated with increasing concentrations of compound Ic (0.3 and 1 μM) or with increasing concentrations of compound Ib (1 and 3 μM). In the same study these two compounds of the invention were compared with N-acetylcysteine (NAC) at 10 mM. The baseline (slices in the absence of compound Ic or Ib and of OGD) and the control (slices in the absence of compound Ic or Ib and with OGD) were also included.
For the protocol of 15 minutes of OGD followed by 2 hours of reoxygenation, the cell viability was evaluated by means of the tetrazolium salt MTT, which is internalized in those cells which are viable and are therefore capable of reducing the tetrazolium to formazan which is an insoluble and coloured product which is deposited in the […]. To that end, after the experiment had ended, the hippocampal slices were incubated with MTT at a final concentration of 0.5 mg/mL in a Krebs-HEPES solution (in mM: NaCl, 144; KCl, 5.9; MgCl2, 1.2; CaCl2, 2; HEPES, 10; glucose, 11; at pH 7.3) at 37° C. After 3 hours, the medium was removed and the formazan precipitated in the solution was dissolved in dimethylsulfoxide. Then, the absorbance was measured in a plate reader (Labsystems iEMS Reader MF), at 500 nm. The data were represented taking the result of the baseline slices, i.e., those not subjected to OGD, as 100% viability.

[1] = tested on: SH-SY5Y human neuroblastoma cells; test: Neuroprotection against cell death induced by rotenone plus oligomycin-A (oxidative stress), LDH release; format: cell-based
Procedure: An oxidative stress model consists of blocking mitochondrial respiratory chain complexes I and V by means of the combination of rotenone plus oligomycin-A, respectively. As a result of the interruption of the mitochondrial respiratory chain, the cell is unable to continue producing ATP, and the free radicals are generated exceeding the capacity of the cell to neutralize them, and as a result, cell death occurs.
SH-SY5Y human neuroblastoma cells were cultured in a monolayer in 75 cm^2 flasks with a vented stopper. The culture medium used was Dulbecco's Modified Eagle's Medium (DMEM) with a high glucose content ([…]) and supplemented with 10% foetal bovine serum, 2 mM L-Glutamine, 50 IU/mL penicillin and 50 μg/mL streptomycin.
The cell cultures were maintained in an incubator at 37° C. in a humid environment, with 5% CO2 and 95% air. The culture medium was changed twice a week, performing 1:4 passages when the cells reached 70-80% confluence. To perform the passages, the cells were detached by means of their treatment with trypsin-EDTA.
For the cell viability assays, the cells were seeded in sterile 48-well plates at a density of 80,000 cells/well. The experiments were performed 24-48 hours after their seeding.
To evaluate the neuroprotective effect of the compounds, the SH-SY5Y cells were preincubated for 24 hours with the compound under study, and subsequently incubated for 24 hours with the compound under study in the presence of the toxic substances (a combination of 10 μM rotenone and 1 μM oligomycin-A); at the end of this period the cell viability was evaluated by quantifying the release of the LDH enzyme.
The assessment of this enzyme was performed by means of a commercial kit (Cytotoxicity detection kit-LDH; Roche) following the instructions of the company. The samples were colorimetrically analyzed in a plate reader (Labsystems iEMS Reader MF), using the suitable filter at 490-600 nm and obtaining the absorbance values.
The % of cell death was defined as the % of LDH released into the extracellular medium with respect to the total (sum of intra- and extracellular LDH).
Compounds Ic and Ib were studied at four concentrations (0.001, 0.003, 0.01 and 0.03 μM), chondroitin sulphate (supplied by Bioibérica, S.A.) was assayed at two concentrations (10 and 60 μM) and trolox (Sigma Aldrich) was assayed at two concentrations (30 and 300 μM). The experiment also included the baseline (SH-SY5Y cells in the absence of compound and of toxic stimulus) and the control (SH-SY5Y cells cultured in the absence of compound and in the presence of the toxic stimulus rotenone plus oligomycin).

[2] = tested on: SH-SY5Y human neuroblastoma cell line; test: Cell toxicity study, LDH release, SH-SY5Y cells incubated 48 hours; format: cell-based; settings: 100 μM, 48 hours incubation
Procedure: The cell toxicity studies were performed on the SH-SY5Y human neuroblastoma cell line, incubating said cells for 48 hours with the compound under study. The cell viability was assessed by quantifying the release of lactate dehydrogenase (LDH), which is a cytoplasmic enzyme which is released into the extracellular medium when the integrity of the cytoplasmic membrane is lost.

[3] = tested on: mice (photothrombotic stroke model); test: Experimental photothrombotic stroke model, cortical infarction volume; format: in vivo, mouse; settings: 15 mg/kg i.p.
From the text: Neuronal death occurs during brain ischemia or stroke; therefore a medicament with a neuroprotective profile can have a therapeutic potential in patients who have suffered from a cerebral infarction or stroke. To explore if the compounds of formula (I) can offer neuroprotection in vivo, the experimental photothrombotic stroke model was used. In the photothrombosis model a focal cerebral infarction is induced in the area of the cortex illuminated by means of a cold light source in mice previously treated with the Rose Bengal stain; this stain is photosensitive and produces free radicals when it is stimulated with light, causing lesions in the surrounding vascular endothelium, which causes platelet aggregation and the formation of thrombi in the microvessels of the cerebral cortex (Non-invasive induction of focal cerebral ischemia in mice by photothrombosis of cortical microvessels: characterization of inflammatory responses, M. Schroeter et al., J Neurosci Methods. 117(1), 43-49. (2002); Melatonin reduces infarction volume in a photothrombotic stroke model in the wild-type but not cyclooxygenase-1-gene knockout mice, L Y. Zhou et al., J Pineal Res. 41(2), 150-156. (2006)).
Adult male Swiss breed mice from Harlan laboratories (Barcelona), with a weight of about 30 g, were used. Once anaesthetised with isoflurane, the mice were placed in a stereotaxic frame, maintaining their rectal temperature at 37±0.5° C. during the entire procedure. Subsequently, the cranium was exposed by means of a dorsomedial incision in the skin and the periosteum was removed. By means of the use of a micromanipulator, a fibre-optic cable was placed to emit a beam of light of 1.9 mm in diameter and 3000° K, connected to a cold light source (Zeiss KL 1500), in 2.0 mm posterior and 3.0 mm lateral to Bregma on the right side. According to the mouse brain atlas (Franklin and Paxinos, 1986), the sensitive-motor cortex, the putamen caudate and the hippocampus are right below this stereotaxic position. Then, the mice were injected with 1 mg of the Rose Bengal photosensitive probe and the brain was illuminated through the intact cranium for 30 minutes. Finally, the skin was sutured and the animals were left in a cage until their recovery under observation.
The animals were sacrificed by decapitation 72 hours after the ischemia. […]
To quantify the cortical cerebral infarction volume, the sections stained with TTC were scanned on both their rostral and caudal part and by means of the image analysis programme ImageJ 1.41 (National Institutes of Health, Bethesda, Md., USA) the area of the ipsi-, contralateral cortex and the cerebral infarction of each of the sections scanned, both in the caudal and rostral part, was quantified. Subsequently, the cerebral infarction volume was calculated. […]

Q: Which viability at 10000 µM (rat hippocampal slices; Rattus norvegicus, 10 mM, 15 minutes OGD, 2 hours reoxygenation, baseline 100%, control 67%, read-out: maximum statistically significant protection (cell viability, MTT)) does the source give for `CC(=O)N[C@@H](CS)C(=O)O` [N-acetylcysteine, reference compound] here?
A: The viability at 10000 µM was 83%.

Q: Which results are given for `CO[C@H]1OC(COS(=O)(=O)[O-])[C@@H](O)[C@H](O[C@@H]2OC(C(=O)[O-])[C@@H](O)[C@H](O)C2O)C1NC(C)=O.[Na+].[Na+]` (stereo partly drawn) [compound Ib]?
A: maximum statistically significant protection against cell death (% of released LDH) induced by rotenone and oligomycin ([1]; 0.03 μM, 24 h preincubation + 24 h with 10 μM rotenone and 1 μM oligomycin-A): 40%; protective effect compared with chondroitin sulphate and trolox ([1]; Ic, Ib at 0.001-0.03 μM vs chondroitin sulphate 10 and 60 μM, trolox 30 and 300 μM): more effective than chondroitin sulphate and than trolox; efficacy in comparison with N-acetylcysteine (rat hippocampal slices; Ic 0.3 and 1 μM, Ib 1 and 3 μM vs N-acetylcysteine 10 mM): higher efficacy; viability at 3 µM (rat hippocampal slices; Rattus norvegicus, 3 μM, 15 minutes OGD, 2 hours reoxygenation, baseline 100%, control 67%, read-out: maximum statistically significant protection (cell viability, MTT)): 85%; cell toxicity (release of LDH) [2]: did not show toxicity

Q: `COc1ccc2[nH]cc(CCNC(C)=O)c2c1` [melatonin, reference compound] was tested. Which cortical infarction volume ([3]; 72 hours after ischemia, saline 6.1±2.18%, mean and standard deviation) did it give?
A: Its cortical infarction volume is 4.3±1.63%.

Q: And the “protection (reduction of cortical infarction volume)” value ([3]; p<0.05 vs saline)?
A: The value was 29%.

Q: How did the “effect on cell death induced by rotenone and oligomycin” value ([1]; 30 and 300 μM) turn out when `Cc1c(C)c2c(c(C)c1O)CCC(C)(C(=O)O)O2` (stereo not drawn) [trolox, reference compound] was run?
A: The value was “reduced cell death”.
